Experimental findings from ChEMBL document CHEMBL1201862, “PubChem BioAssay data set” (2004) are described below.

As usually defined, the GI50 is the concentration giving 50% growth inhibition.

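48-hour exposure; five concentrations; linearly interpolated endpoints. GI50 is the concentration that inhibits growth by half.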 Calls of active or inactive are those of the source. Rule as the data show it: active = GI50 up to about 1.1 µM and inactive = higher.

Test systems include COLO 205; NCI-H226; NCI-H522; HOP-92; Malme-3M; SNB-75; CCRF-CEM; UO-31; HT-29; A498; HOP-62; MOLT-4; SK-MEL-28; SW-620; RPMI-8226; OVCAR-5; SK-MEL-2.
Assay in all cases: DTP human tumour cell line panel, 48 h

In the case of `CC(Oc1ccc2c(-c3ccccc3)cc(=O)oc2c1)C(=O)O` (centres undefined), the GI50 in the assay with COLO 205, with NCI-H226, in the assay with NCI-H522, with HOP-92, in the assay on Malme-3M and in the assay with SNB-75 was > 100 µM (inactive) in each case. The GI50 in the assay on CCRF-CEM, in the assay on UO-31, with HT-29, with A498, with HOP-62 and with MOLT-4 was > 100 µM (inactive) in each case. Besides, the GI50 in the assay on SK-MEL-28 and in the assay with SW-620 was > 100 µM (inactive) in each case.
As for `N#C/C(=C\c1ccc(CP(=O)(O)O)cc1)C(N)=O`, the GI50 in the assay on RPMI-8226, in the assay on COLO 205, with NCI-H226, in the assay on NCI-H522, in the assay with OVCAR-5 and with HOP-92 was > 100 µM (inactive) each time. Further, the GI50 with Malme-3M, with SK-MEL-2, in the assay with CCRF-CEM, in the assay with UO-31, with HT-29 and with A498 was > 100 µM (inactive) each time. For the same molecule, the GI50 in the assay on HOP-62, with MOLT-4, with SK-MEL-28 and with SW-620 was > 100 µM (inactive) in each case.
In the case of `Cc1nc(N)sc1C(=O)/C=C\c1ccc2c(c1)OCO2`, the GI50 in the assay with RPMI-8226, in the assay on COLO 205, with NCI-H226, in the assay with NCI-H522, with OVCAR-5 and in the assay on HOP-92 was > 100 µM (inactive) in each case. The GI50 in the assay with Malme-3M, with SNB-75, in the assay with SK-MEL-2, with CCRF-CEM, in the assay with UO-31 and with HT-29 was > 100 µM (inactive) throughout. In addition, the GI50 with A498, in the assay on HOP-62, in the assay on MOLT-4, in the assay on SK-MEL-28 and in the assay with SW-620 was > 100 µM (inactive) throughout.
Take `O=c1ccn([C@@H]2C[C@H](CO)C[S+]([O-])C2)c(=O)[nH]1` (some centres undefined): the GI50 with RPMI-8226, in the assay with COLO 205, in the assay on NCI-H226, in the assay with NCI-H522, in the assay with HOP-92 and in the assay with Malme-3M was > 100 µM (inactive) each time. Besides, the GI50 with SNB-75, in the assay on SK-MEL-2, with CCRF-CEM, in the assay on UO-31, in the assay on HT-29 and with A498 was > 100 µM (inactive) throughout. Besides, the GI50 in the assay with HOP-62, with MOLT-4, in the assay with SK-MEL-28 and in the assay on SW-620 was > 100 µM (inactive) throughout.
In the case of `NC(=O)CC(N/C=C1/N=C(c2ccccc2)OC1=O)C(=O)O` (centres undefined), the GI50 in the assay with RPMI-8226, in the assay with COLO 205, in the assay on NCI-H226, with NCI-H522, with OVCAR-5 and in the assay on HOP-92 was > 100 µM (inactive) in each case. Also, the GI50 with Malme-3M, in the assay on SNB-75, in the assay on SK-MEL-2, in the assay on CCRF-CEM, with UO-31 and in the assay on HT-29 was > 100 µM (inactive) each time. Moreover, the GI50 with A498, in the assay with HOP-62, in the assay on SK-MEL-28 and with SW-620 was > 100 µM (inactive) each time.
Regarding `COc1ccc(/C=C2\C(=O)N(NC(C)=O)c3ccccc32)cc1`, the GI50 is 37.4 µM (inactive) in the assay on RPMI-8226; > 100 µM (inactive) in the assay on COLO 205; > 100 µM (inactive) in the assay on NCI-H226; > 100 µM (inactive) with OVCAR-5; > 100 µM (inactive) in the assay on HOP-92; > 100 µM (inactive) in the assay on Malme-3M. Further, the GI50 is 33.5 µM (inactive) in the assay with SNB-75; > 100 µM (inactive) in the assay on SK-MEL-2; 49.7 µM (inactive) in the assay on CCRF-CEM; 37.4 µM (inactive) in the assay with UO-31; 42 µM (inactive) in the assay on HT-29; > 100 µM (inactive) in the assay with A498. Also, the GI50 in the assay on HOP-62 is 97.3 µM (inactive); in the assay with MOLT-4, 40.9 µM (inactive); in the assay on SK-MEL-28, > 100 µM (inactive); in the assay on SW-620 it was 95.9 µM (inactive).
Take `CN(CCCCN)c1ccc2c(=O)[nH][nH]c(=O)c2c1`: the GI50 in the assay with RPMI-8226, in the assay on COLO 205, in the assay on NCI-H226, in the assay on NCI-H522, with OVCAR-5 and with HOP-92 was > 100 µM (inactive) in each case. For the same molecule, the GI50 in the assay with Malme-3M is > 100 µM (inactive); in the assay on SNB-75 it was 88.3 µM (inactive); in the assay on SK-MEL-2 it was > 100 µM (inactive); in the assay on CCRF-CEM, > 100 µM (inactive); with UO-31 it was > 100 µM (inactive); with HT-29 it was > 100 µM (inactive). The GI50 in the assay on A498, in the assay on HOP-62, with MOLT-4, in the assay on SK-MEL-28 and in the assay on SW-620 was > 100 µM (inactive) throughout.
As to `NC(CCCNc1cccc(O)c1)C(=O)O` (centres undefined), the GI50 in the assay with RPMI-8226, with COLO 205, in the assay on NCI-H226, in the assay on NCI-H522, with OVCAR-5 and in the assay with HOP-92 was > 100 µM (inactive) throughout. The GI50 in the assay on Malme-3M, with SNB-75, in the assay on SK-MEL-2, in the assay with CCRF-CEM, in the assay on UO-31 and in the assay with HT-29 was > 100 µM (inactive) throughout. The GI50 in the assay with A498, in the assay on HOP-62, in the assay with MOLT-4, in the assay on SK-MEL-28 and with SW-620 was > 100 µM (inactive) each time.
As for `CCN(CC)CCC1CC/C(=C\c2ccc(OC)cc2)C1=O` (centres undefined), the GI50 in the assay on RPMI-8226 was 40.9 µM (inactive); in the assay with COLO 205, 18 µM (inactive); with NCI-H226 it was > 100 µM (inactive); in the assay with NCI-H522, 60.7 µM (inactive); in the assay with OVCAR-5, > 100 µM (inactive); in the assay on HOP-92, 39.5 µM (inactive). Moreover, the GI50 with Malme-3M is > 100 µM (inactive); in the assay on SNB-75 it was > 100 µM (inactive); in the assay on SK-MEL-2, > 100 µM (inactive); in the assay with CCRF-CEM, > 100 µM (inactive); in the assay with UO-31, 58.1 µM (inactive); in the assay on HT-29, 39.3 µM (inactive). Also, the GI50 is 74.8 µM (inactive) with A498; > 100 µM (inactive) in the assay with HOP-62; 59.6 µM (inactive) in the assay with MOLT-4; 74.8 µM (inactive) in the assay with SK-MEL-28; > 100 µM (inactive) in the assay with SW-620.
For the molecule `COC(=O)C(C#N)=C1c2ccccc2Oc2ccccc21`, the GI50 in the assay on RPMI-8226 is 18.8 µM (inactive); in the assay on COLO 205 it was 92 µM (inactive); in the assay with NCI-H226, 65.5 µM (inactive); with NCI-H522, 24.9 µM (inactive); with OVCAR-5, > 100 µM (inactive); in the assay on HOP-92, 30.5 µM (inactive). The GI50 in the assay on Malme-3M is 93.3 µM (inactive); with SNB-75 it was 42.2 µM (inactive); with SK-MEL-2, > 100 µM (inactive); with CCRF-CEM, 32.4 µM (inactive); in the assay with UO-31 it was > 100 µM (inactive); with HT-29, 39.3 µM (inactive). The GI50 in the assay on A498 was > 100 µM (inactive); in the assay with HOP-62, > 100 µM (inactive); in the assay with MOLT-4, 35.4 µM (inactive); in the assay with SK-MEL-28, 56.6 µM (inactive); in the assay with SW-620, 43.2 µM (inactive).
As to `CCOC(=O)Oc1c(OC)cc(C(=O)NC2CCc3cc(OC)c(OC)c(OC)c3-c3ccc(SC)c(=O)cc32)cc1OC` (centres undefined), the GI50 in the assay on COLO 205 was 0.0439 µM (active); with NCI-H226, 0.0471 µM (active); in the assay on NCI-H522 it was < 0.007 µM (active); with HOP-92 it was 0.0728 µM (active); in the assay on Malme-3M, 0.204 µM (active); in the assay with SNB-75, 0.071 µM (active). The GI50 with SK-MEL-2 is 0.0466 µM (active); with CCRF-CEM it was < 0.007 µM (active); in the assay on UO-31 it was 1.5 µM (inactive); with HT-29, 0.0484 µM (active); with A498, 0.223 µM (active); in the assay with HOP-62 it was 0.601 µM (active). Further, the GI50 was 0.157 µM (active) in the assay on MOLT-4, 20.7 µM (inactive) in the assay on SK-MEL-28 and 0.0419 µM (active) in the assay on SW-620.
In the case of `COc1cc2c[n+](C)c3c4cc(OC)c(OC)cc4c(OCCCCCCCCOc4cc5c6cc(OC)c(OC)cc6c[n+](C)c5c5cc(OC)c(OC)cc45)cc3c2cc1OC`, the GI50 in the assay with RPMI-8226 was 22.3 µM (inactive); in the assay on NCI-H226 it was > 100 µM (inactive); in the assay with NCI-H522, > 100 µM (inactive); in the assay on OVCAR-5 it was > 100 µM (inactive); in the assay on HOP-92, > 100 µM (inactive); with Malme-3M, > 100 µM (inactive). Also, the GI50 in the assay with SNB-75 was 58.6 µM (inactive); in the assay on SK-MEL-2, > 100 µM (inactive); in the assay on CCRF-CEM it was 24.8 µM (inactive); in the assay on UO-31, > 100 µM (inactive); with HT-29, 67.9 µM (inactive); in the assay on A498, > 100 µM (inactive). In addition, the GI50 is > 100 µM (inactive) with HOP-62, 31.6 µM (inactive) with MOLT-4, > 100 µM (inactive) with SK-MEL-28 and > 100 µM (inactive) in the assay on SW-620.
